Measurements from patent US20240148672A1, “ORAL THIN FILM” (LTS LOHMANN THERAPIE-SYSTEME AG, priority 2021, published 2024).
Structures can show the parent of a compound that is named as a salt.

Legend:
[1] = pH value of oral thin film dissolved in demineralised water; type: physicochemical; settings: Measured as dissolved OTF in demineralised water temperature-controlled to 32° C. (blank value pH 7.12)
Method: Oral thin films of the composition according to Table 1 were prepared as follows. The active ingredient or the active ingredient mixture was presented and an aqueous solution of the matrix polymer was added. The remaining ingredients were then stirred in. The solution was spread and dried in order to obtain an oral thin film.

[2] = (S)-ketamine versus (R) form; cited from earlier work

SMILES	pH-value [1]	analgesic and anaesthetic potency relative to the (R) form [2]
CNC1(c2ccccc2Cl)CCCCC1=O (centres unmarked) [ketamine hydrochloride]	5.32	
CNC1(c2ccccc2Cl)CCCCC1=O (racemic) [(S)-ketamine, (S)-(±)-2-(2-chlorophenyl)-2-(methylamino)cyclohexan-1-one]		approximately three times higher
